The source of these data is publication PMC8231556, “Inhibiting Endothelial Cell Function in Normal and Tumor Angiogenesis Using BMP Type I Receptor Macrocyclic Kinase Inhibitors” (Cancers, 2021).

Assay [1] concerns Tg (fli:EGFP) zebrafish embryos. Briefly: Zebrafish DLAV and ISV formation. It counts as in vivo. The settings on record: 0.5 µM, 20 h. As for the experimental part:
The Tg (fli:EGFP) zebrafish embryos were collected, and embryos with the same development stage (around 2.5 hpf) were selected. The eggs were randomly separated into different groups, and each group contained at least 20 embryos. The embryos were exposed to egg water containing 0.5 µM compounds or vehicle control (equal amount of DMSO) for 20 h at 28 °C. Next, all the eggs were dechorionated under the microscope using tweezers. The zebrafish embryos were fixed in 4% paraformaldehyde (PFA) for 2 h at room temperature and stored at 4 °C in phosphate-buffered saline (PBS). The entire zebrafish embryo was imaged with an Andor Dragonfly 500 spinning disk confocal (Oxford Instruments, Abingdon, UK) using a 488 nm laser. Five embryos in each group were randomly selected and scanned. The zebrafish vasculature formation of DLAV and ISV after 20 h treatment with compounds was quantified using ImageJ as previously described. The experiments were repeated twice with similar results.

A further assay addresses TGFBR2 (Homo sapiens, UniProt P37173). Briefly: radiometric protein kinase assay, affinity (Kd). It counts as binding. As for the experimental part:
The binding interaction profile of the compounds for ALK1–6, ACVR2A, ACVR2B, and TGFβR2 was determined by using radiometric protein kinase assay. For each compound, ten different concentrations (from 3 × 10^−6 M to 9 × 10^−11 M) were used in the protein kinase reaction.

In assay [2] the test system is constitutively active ALK1 (caALK1). Description: caALK1-induced BRE-Luc reporter activity in C2C12 cells. In kind it is cell-based. Conditions: for inhibition of caALK1 compared to caALK2 (BRE-Luc): C2C12 cells. From the text:
To further investigate and validate the selective inhibitory effects of OD16 and OD29 toward BMP9/ALK1 and BMP6/ALK2 signaling, we transfected C2C12 myoblast cells with constitutively active mutant ALK1 and ALK2 (caALK1 and caALK2). These constitutively active receptors signal in the absence of exogenous ligands and allow for a more direct assessment of inhibitory effects that are elicited by kinase receptor inhibitors. […]
Figure S4. OD29 and OD16 are two small molecule BMP type I receptors kinase inhibitors in C2C12 cells. Effects of vehicle control (DMSO), LDN−193189, OD16 or OD29 on BRE transcriptional luciferase reporter activity induced by the ectopic expression of caALK1 (A) or caALK2 (B) in C2C12 cells. Cells were incubated with the inhibitors in three different con-centrations (0.1 μM, 0.5 μM or 1 μM) for 16 hours. Representative results from three biologically independent experiments are shown as mean ± SD. NS, not significant; * p < 0.05, ** p < 0.005; *** p < 0.001.

For assay [3], the system named is BMP9-induced BRE-Luc activity. Description: BRE-luciferase transcriptional reporter assay, BMP9-stimulated EA.hy926-BRE-Luc cells. In kind it is cell-based, human. Conditions: for BMP9-induced BRE-Luc activity (fold): BMP9 1 ng/mL alone 5.0 fold. From the text: The BMP responsive element (BRE)-driven transcriptional luciferase reporter, which contains SMAD1/5-SMAD4 responsive elements of the ID1 gene promoter, was used to assess the activation of the BMP/SMAD signaling pathway. A lentiviral vector carrying this reporter construct (pRRL-BRE-Luc) was generated by digesting the MLP-BRE-Luc plasmid with KpnI and SalI and then inserted into the lentivirus vector pRRL-CMV digested with XhoI and KpnI. Lentiviral particles were made using HEK 293 T cells, and EA.hy926 cells were transduced to generate BRE-Luc stably expressing cells, named as EA.hy926-BRE-Luc.
EA.hy926-BRE-Luc cells were seeded at approximately 5 × 10^5 cells/well in a 24-well plate. Cells were serum-starved overnight by incubating with a serum-free medium. After starvation, the cells were pre-incubated with the compounds for 30 min and subsequently stimulated overnight with ligands (or vehicle control). Thereafter, the cells were lysed, and luciferase activity was measured with the firefly luciferase assay System kit (E1501, Promega Corporation, Madison, WI, USA) using a PerkinElmer luminometer. The firefly luciferase activity was normalized to protein content, which was determined using the DC protein assay kit (5000111, Bio-Rad, Hercules, CA, USA).
For orientation: Reporter assays use an easily measured gene product as a stand-in for the process of interest.

The next assay concerns the target T1, RPS6KB1 (Homo sapiens, UniProt P23443).
T1 construct: purchased ProQinase (33PanQinase Activity Assay)
Briefly: radiometric kinase profiling (33 PanQinase). In kind it is biochemical. Conditions: read-out: Inhibitory effect (%) RPS6KB1. As for the experimental part:
(§1) The kinase inhibition profile of the compounds was determined by testing 96 protein kinases’ activity using a radiometric protein kinase assay (33 PanQinase® Activity Assay, Proqinase, Germany). In brief, 10 µL of non-radioactive ATP solution (in H2O), 25 µL of assay buffer/[γ-33 P]-ATP mixture, 5 µL of 0.1 μM the tested compound in 10% DMSO and 10 µL of enzyme/substrate were mixed in 96-well FlashPlatesTM (Perkin Elmer, Boston, MA, USA). The reaction was conducted at 30 °C for 60 min. To stop the reaction, 50 µL of 2% (v/v) H3PO4 was added into the protein kinase reaction cocktails. After which, with 200 µL 0.9% (w/v) NaCl twice, the incorporation of ^33 Pi (counting of “cpm”) was determined with a microplate scintillation counter (Wallac Microbeta, Boston, MA, USA). All protein kinase assays were performed using a BeckmanCoulter Biomek 2000/SL robotic system (Brea, CA, USA). The residual activity (in %) for each compound was normalized to 100% enzyme activity (untreated control) and background (negative control).

A further assay concerns the target T2, MAPK3 (Homo sapiens, UniProt P27361).
T2 construct: purchased ProQinase (33PanQinase Activity Assay)
Briefly: radiometric kinase profiling (33 PanQinase). Conditions: read-out: Inhibitory effect (%) MAPK3. In kind it is biochemical. As for the experimental part:
as §1

For another assay, the target named is T3, JAK1 (Homo sapiens, UniProt P23458).
T3 construct: purchased ProQinase (33PanQinase Activity Assay)
T3 sequence (P23458 whole entry): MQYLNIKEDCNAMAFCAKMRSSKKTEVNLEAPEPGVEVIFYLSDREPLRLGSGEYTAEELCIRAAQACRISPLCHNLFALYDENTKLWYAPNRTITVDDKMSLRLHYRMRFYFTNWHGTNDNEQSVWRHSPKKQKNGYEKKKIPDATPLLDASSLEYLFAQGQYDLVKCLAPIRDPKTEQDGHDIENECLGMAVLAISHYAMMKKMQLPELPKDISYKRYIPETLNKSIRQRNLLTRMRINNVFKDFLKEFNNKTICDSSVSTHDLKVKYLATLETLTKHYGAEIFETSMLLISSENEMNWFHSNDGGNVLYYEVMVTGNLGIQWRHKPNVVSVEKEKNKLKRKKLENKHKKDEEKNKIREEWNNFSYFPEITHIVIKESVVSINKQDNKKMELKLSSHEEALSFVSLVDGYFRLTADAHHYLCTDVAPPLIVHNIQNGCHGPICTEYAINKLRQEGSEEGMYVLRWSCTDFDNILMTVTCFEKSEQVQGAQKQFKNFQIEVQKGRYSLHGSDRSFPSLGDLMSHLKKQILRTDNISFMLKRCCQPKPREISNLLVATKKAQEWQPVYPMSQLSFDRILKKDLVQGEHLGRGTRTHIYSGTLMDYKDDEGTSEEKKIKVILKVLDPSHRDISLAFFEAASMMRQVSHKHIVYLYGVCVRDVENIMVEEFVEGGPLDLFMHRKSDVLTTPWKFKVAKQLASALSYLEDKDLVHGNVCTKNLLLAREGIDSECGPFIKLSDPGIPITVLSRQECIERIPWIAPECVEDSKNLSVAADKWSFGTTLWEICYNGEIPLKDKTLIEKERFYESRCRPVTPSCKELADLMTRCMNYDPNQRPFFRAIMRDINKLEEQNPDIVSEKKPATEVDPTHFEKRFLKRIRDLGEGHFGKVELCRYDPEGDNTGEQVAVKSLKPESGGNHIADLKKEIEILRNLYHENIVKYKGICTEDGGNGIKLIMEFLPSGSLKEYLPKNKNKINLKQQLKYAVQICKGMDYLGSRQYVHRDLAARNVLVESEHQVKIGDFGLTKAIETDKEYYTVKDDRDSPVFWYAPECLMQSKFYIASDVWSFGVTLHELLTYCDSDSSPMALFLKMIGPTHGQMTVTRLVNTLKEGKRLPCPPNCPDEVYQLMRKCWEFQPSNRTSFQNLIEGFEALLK
Description: radiometric kinase profiling (33 PanQinase). In kind it is biochemical. Conditions: read-out: Inhibitory effect (%) JAK1. As for the experimental part:
as §1

The target in another assay is T4, MAP3K8 (Homo sapiens, UniProt P41279).
T4 construct: purchased ProQinase (33PanQinase Activity Assay)
T4 sequence (P41279 whole entry): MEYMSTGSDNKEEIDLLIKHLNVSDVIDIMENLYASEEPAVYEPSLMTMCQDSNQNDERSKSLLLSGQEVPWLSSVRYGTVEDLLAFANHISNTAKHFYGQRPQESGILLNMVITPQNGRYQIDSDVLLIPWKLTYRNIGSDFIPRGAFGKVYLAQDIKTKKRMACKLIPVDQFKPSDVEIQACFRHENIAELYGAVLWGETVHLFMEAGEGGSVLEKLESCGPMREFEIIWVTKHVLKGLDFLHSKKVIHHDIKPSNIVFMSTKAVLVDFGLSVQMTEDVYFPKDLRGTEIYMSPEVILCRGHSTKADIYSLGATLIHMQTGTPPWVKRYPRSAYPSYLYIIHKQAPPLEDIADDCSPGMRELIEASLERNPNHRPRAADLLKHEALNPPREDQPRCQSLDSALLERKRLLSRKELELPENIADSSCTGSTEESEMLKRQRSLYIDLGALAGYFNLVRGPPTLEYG
Description: radiometric kinase profiling (33 PanQinase). In kind it is biochemical. The settings on record: read-out: Inhibitory effect (%) MAP3K8. As for the experimental part:
as §1

The target in another assay is T5, MAPK9 (Homo sapiens, UniProt P45984).
T5 construct: purchased ProQinase (33PanQinase Activity Assay)
T5 sequence (P45984 whole entry): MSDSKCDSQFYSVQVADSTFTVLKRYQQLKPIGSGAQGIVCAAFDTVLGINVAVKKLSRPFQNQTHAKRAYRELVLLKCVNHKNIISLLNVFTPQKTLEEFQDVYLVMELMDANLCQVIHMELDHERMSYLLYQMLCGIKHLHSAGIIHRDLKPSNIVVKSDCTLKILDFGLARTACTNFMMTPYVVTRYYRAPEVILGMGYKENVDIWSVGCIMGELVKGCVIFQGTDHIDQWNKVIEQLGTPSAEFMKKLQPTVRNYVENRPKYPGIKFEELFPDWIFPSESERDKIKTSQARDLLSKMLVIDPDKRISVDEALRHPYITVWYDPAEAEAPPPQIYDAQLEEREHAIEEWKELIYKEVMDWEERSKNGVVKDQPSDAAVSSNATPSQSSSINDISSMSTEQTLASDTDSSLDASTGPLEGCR
Description: radiometric kinase profiling (33 PanQinase). The settings on record: read-out: Inhibitory effect (%) MAPK9. In kind it is biochemical. As to the method:
as §1

SMILES strings stand for the structures.

T1 sequence (P23443 whole entry): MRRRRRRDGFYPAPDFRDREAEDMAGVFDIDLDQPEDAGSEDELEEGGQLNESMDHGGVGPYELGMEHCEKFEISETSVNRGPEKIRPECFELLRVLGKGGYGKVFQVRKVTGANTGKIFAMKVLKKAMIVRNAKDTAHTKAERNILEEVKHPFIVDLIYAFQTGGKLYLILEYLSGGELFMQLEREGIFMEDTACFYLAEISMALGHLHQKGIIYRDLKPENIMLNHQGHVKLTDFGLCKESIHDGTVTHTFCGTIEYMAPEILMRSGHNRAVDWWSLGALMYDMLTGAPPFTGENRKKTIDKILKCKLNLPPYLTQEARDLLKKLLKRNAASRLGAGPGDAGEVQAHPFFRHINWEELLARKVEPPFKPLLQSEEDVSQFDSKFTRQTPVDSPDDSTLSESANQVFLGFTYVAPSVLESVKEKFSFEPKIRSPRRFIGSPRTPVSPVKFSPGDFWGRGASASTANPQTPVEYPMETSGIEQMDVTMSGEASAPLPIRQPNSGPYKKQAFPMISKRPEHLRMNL
T2 sequence (P27361 whole entry): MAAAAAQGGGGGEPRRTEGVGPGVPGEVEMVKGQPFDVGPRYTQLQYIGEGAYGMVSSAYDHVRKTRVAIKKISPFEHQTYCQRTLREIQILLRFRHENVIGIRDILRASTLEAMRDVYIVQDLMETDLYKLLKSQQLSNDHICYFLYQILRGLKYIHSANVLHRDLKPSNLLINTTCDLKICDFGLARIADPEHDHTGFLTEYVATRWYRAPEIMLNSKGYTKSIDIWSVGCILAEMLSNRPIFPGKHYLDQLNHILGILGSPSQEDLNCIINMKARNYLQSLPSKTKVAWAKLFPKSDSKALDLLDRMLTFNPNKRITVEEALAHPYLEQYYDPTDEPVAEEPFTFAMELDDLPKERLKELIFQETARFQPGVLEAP
TGFBR2, sequence (P37173 23-567): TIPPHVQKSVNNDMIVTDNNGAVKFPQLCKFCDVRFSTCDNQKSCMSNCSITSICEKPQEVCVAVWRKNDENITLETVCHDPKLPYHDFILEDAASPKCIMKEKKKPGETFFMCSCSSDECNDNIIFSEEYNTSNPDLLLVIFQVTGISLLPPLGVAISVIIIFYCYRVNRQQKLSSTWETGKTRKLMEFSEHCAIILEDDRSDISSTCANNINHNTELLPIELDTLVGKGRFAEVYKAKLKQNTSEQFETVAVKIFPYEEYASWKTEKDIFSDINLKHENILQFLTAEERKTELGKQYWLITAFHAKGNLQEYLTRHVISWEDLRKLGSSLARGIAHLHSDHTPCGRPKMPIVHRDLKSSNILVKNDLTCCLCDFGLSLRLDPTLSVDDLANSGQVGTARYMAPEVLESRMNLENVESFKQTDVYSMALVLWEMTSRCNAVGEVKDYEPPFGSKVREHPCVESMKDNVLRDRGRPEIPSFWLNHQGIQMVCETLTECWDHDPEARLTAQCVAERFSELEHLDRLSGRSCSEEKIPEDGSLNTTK

On to `CNC(=O)c1ccccc1Sc1ccc2c(/C=C/c3ccccn3)n[nH]c2c1` [Axitinib, reference compound], for which, in [1], the “effect on DLAV and ISV formation (images)” value (“effect … (images)” for short) was “strong defects in both DLAV and ISV formation”; the “effect on total vessel length and number of junctions (DLAV and ISV, quantified)” value (from here on “effect on total vessel length and number”) is on record as “strongly inhibited”.
For `c1ccc2c(-c3cnn4cc(-c5ccc(N6CCNCC6)cc5)cnc34)ccnc2c1` [LDN-193189, reference compound], the Kd at TGFBR2 turned out to be 16 nM. Also, in assay [2], the “inhibition of caALK1 compared to caALK2 (BRE-Luc)” value was “No difference in inhibition between ALK1 and ALK2”. Also, in assay [2] (C2C12 cells, 0.1, 0.5 or 1 μM, 16 hours), the “effect on caALK1-induced BRE-Luc reporter activity” value is “in a dose-dependent manner attenuated”. Besides, the “effect on BMP9-induced BRE activity” value in [3] (0.5 μM compound) was “significantly inhibited”; in assay [3] (1 μM compound), “nearly decreased to basal levels”. For the same compound, the “effect … (images)” value in [1] is on record as “did not exhibit apparent defects”. The “effect on total vessel length and number” value in assay [1] is recorded as “showed no effects”. Besides, the inhibition at 0.1 µM on RPS6KB1 is 13%; on MAPK3 it was -8.08%; on JAK1, -10.9%; on MAP3K8 it was -10.3%; at MAPK9, -21.3%.
In the case of `CN1CCc2cccc(c2)Nc2nccc(n2)N2CCCc3cc(ccc32)C1` [OD16], the Kd on TGFBR2 stood at 380 nM. In addition, the “inhibition of caALK1 compared to caALK2 (BRE-Luc)” value in assay [2] was “higher sensitivity and more inhibitory potential against caALK1 compared to caALK2”. In addition, in assay [3] (0.1 μM compound), the “BMP9-induced BRE-Luc activity (fold)” value is 2.1 fold. The “effect on BMP9-induced BRE activity” value in assay [3] (1 μM compound) is “nearly completely inhibited”. Moreover, in assay [1], the “effect on DLAV formation” value is “strongly delayed”. Moreover, the “effect on ISV development” value in assay [1] is reported as “slightly inhibited”. In addition, the “effect on total vessel length and number” value in assay [1] is listed as “significantly inhibited”. Further, the inhibition at 0.1 µM at RPS6KB1 is -15%; on MAPK3, -13.8%; on JAK1, 23.1%; at MAP3K8 it was -16.9%; at MAPK9, -11%.
Turning to `CN1CCC(=O)NCCNc2ccn3ncc(c3n2)-c2cccc(c2)C1` [OD29], the dissociation constant (Kd) on TGFBR2 came to 76 nM. In assay [2], the “inhibition of caALK1 compared to caALK2 (BRE-Luc)” value is “higher sensitivity and more inhibitory potential against caALK1 compared to caALK2”. Moreover, the “BMP9-induced BRE-Luc activity (fold)” value is given as 3.1 fold in assay [3] (0.5 μM compound) and 0.9 fold in [3] (1 μM compound). In addition, the “effect … (images)” value in assay [1] is listed as “strong negative impact”. The “effect on total vessel length and number” value in assay [1] is “significantly inhibited”. For the same compound, the inhibition at 0.1 µM is -3.52% on RPS6KB1; -7.55% on MAPK3; -3.74% at JAK1; -5.03% on MAP3K8; 5.44% at MAPK9.

A word on the Kd: it is the constant that tells how readily two partners part at equilibrium. Higher therefore signals a looser complex.
